# Test results published in patent US11440905B2, “Biheterocyclic compound” (SUMITOMO PHARMA CO., LTD., priority 2016, dated 2022).
# Counter-ions that a name gives are not always drawn.
# Biological target: T1, mouse semaphorin 3A (Sema3A) (Mus musculus, UniProt O08665)
# T1 sequence (O08665 21-772): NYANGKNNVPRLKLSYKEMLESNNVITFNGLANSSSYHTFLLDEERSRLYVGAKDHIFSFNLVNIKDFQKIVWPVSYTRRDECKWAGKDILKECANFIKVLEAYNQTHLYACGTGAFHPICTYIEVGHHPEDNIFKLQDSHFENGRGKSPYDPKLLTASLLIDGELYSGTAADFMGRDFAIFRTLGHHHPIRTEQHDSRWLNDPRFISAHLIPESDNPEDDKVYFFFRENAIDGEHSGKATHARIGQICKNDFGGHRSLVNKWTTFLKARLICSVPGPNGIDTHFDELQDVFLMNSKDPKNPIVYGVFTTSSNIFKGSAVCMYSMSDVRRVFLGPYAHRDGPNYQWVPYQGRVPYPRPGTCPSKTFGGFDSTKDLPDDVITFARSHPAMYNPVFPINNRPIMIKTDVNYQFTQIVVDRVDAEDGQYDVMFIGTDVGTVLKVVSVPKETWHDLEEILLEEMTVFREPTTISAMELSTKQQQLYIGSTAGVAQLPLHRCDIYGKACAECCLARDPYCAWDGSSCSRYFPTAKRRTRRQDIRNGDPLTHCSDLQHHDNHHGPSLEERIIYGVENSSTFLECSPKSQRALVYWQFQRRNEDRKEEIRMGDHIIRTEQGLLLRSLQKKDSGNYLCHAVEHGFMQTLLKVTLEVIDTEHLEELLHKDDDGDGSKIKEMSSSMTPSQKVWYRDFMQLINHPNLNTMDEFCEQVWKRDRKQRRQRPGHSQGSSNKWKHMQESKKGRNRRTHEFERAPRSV
# Experiment: Inhibitory activity for the collapse activity caused by Sema3A (growth cone collapse assay, Test 1)
# Type: cell-based
# Conditions: chick embryo dorsal root ganglion, 3 units/mL mouse Sema3A, smaller value = more potent inhibition, read-out: residual ratio (%) of Sema3A activity (collapse assay); for remaining activity at 1 µM: 1 μM test compound; for remaining activity at 3 µM: 3 μM test compound; for remaining activity at 10 µM: 10 μM test compound
# Protocol: Inhibitory Activity for the Collapse Activity Caused by Sema3A
# 96 well-plate (SUMITOMO BAKELITE CO., LTD.) which was beforehand coated with polylysine was further coated with laminin (10 μL laminin, at room temperature, for 1 hour). To each well was added 100 μL of a medium (F12 medium containing 10% fetal bovine serum, 20 ng/mL NGF, 100 unit/mL penicillin, and 100 μg/mL streptomycin). Dorsal root ganglion harvested from 7-8 day-old chick embryo was inoculated thereto, and the culture medium was cultivated under the condition of 5% CO2 and 37° C. for 16-20 hours. And then, each test compound in various concentrations was added to the medium, each test medium was cultivated for 30 minutes, 3 units/mL mouse semaphorin 3A (Sema3A) was added to each medium, and then each test medium was cultivated for more 30 minutes. Then, glutaraldehyde was added to the medium, in which the final concentration of glutaraldehyde was 1%. The medium was left to stand at room temperature for 15 minutes to make the tissue fragment fixed, and the ratio of the retracted growth cone was measured under a microscope.
Compound,remaining activity at 1 µM [%],remaining activity at 3 µM [%],remaining activity at 10 µM [%]
"Cn1cc(-c2coc3cc(O)c(O)c(C(=O)O)c3c2=O)c(=O)c2cc(O)c(O)cc21 [Example 1, 3-(6,7-Dihydroxy-1-methyl-4-oxo-1,4-dihydroquinolin-3-yl)-6,7-dihydroxy-4-oxo-4H-chromene-5-carboxylic acid]",2,4.6,
"Cn1cc(-c2coc3cc(O)c(O)c(C(=O)OCc4cn(CC(=O)N[C@@H](CCCNC(=N)N)C(=O)O)nn4)c3c2=O)c(=O)c2cc(O)c(O)cc21 [Example 4, N^2-({4-[({[3-(6,7-Dihydroxy-1-methyl-4-oxo-1,4-dihydroquinolin-3-yl)-6,7-dihydroxy-4-oxo-4H-chromen-5-yl]carbonyl}oxy)methyl]-1H-1,2,3-triazol-1-yl}acetyl)-L-arginine trifluoroacetate]",6,,
"Cn1cc(-c2coc3cc(O)c(O)c(C(=O)N[C@@H](CCC(=O)O)C(=O)O)c3c2=O)c(=O)c2cc(O)c(O)cc21 [Example 5, N-{[3-(6,7-Dihydroxy-1-methyl-4-oxo-1,4-dihydroquinolin-3-yl)-6,7-dihydroxy-4-oxo-4H-chromen-5-yl]carbonyl}-L-glutamic acid]",5.1,3.3,
"Cc1c(-c2coc3cc(O)c(O)c(C(=O)O)c3c2=O)c(=O)c2cc(O)c(O)cc2n1C [Example 7, 3-(6,7-Dihydroxy-1,2-dimethyl-4-oxo-1,4-dihydroquinolin-3-yl)-6,7-dihydroxy-4-oxo-4H-chromene-5-carboxylic acid]",,< 70,< 40
"Cc1c(-c2coc3cc(O)c(O)c(C(=O)OCc4cn(CC(=O)N[C@@H](CCC(=O)O)C(=O)O)nn4)c3c2=O)c(=O)c2cc(O)c(O)cc2n1C [Example 8, N-({4-[({[3-(6,7-Dihydroxy-1,2-dimethyl-4-oxo-1,4-dihydroquinolin-3-yl)-6,7-dihydroxy-4-oxo-4H-chromen-5-yl]carbonyl}oxy)methyl]-1H-1,2,3-triazol-1-yl}acetyl)-L-glutamic acid]",27.3,21,
"O=C(O)c1c(O)c(O)cc2occ(-c3cc4cc(O)c(O)cc4oc3=O)c(=O)c12 [Example 9, 6,6′,7,7′-Tetrahydroxy-2,4′-dioxo-2H,4′H-3,3′-bichromene-5′-carboxylic acid]",3.4,7.3,
"O=C(O)CC[C@H](NC(=O)Cn1cc(COC(=O)c2c(O)c(O)cc3occ(-c4cc5cc(O)c(O)cc5oc4=O)c(=O)c23)nn1)C(=O)O [Example 11, N-{[4-({[(6,6′,7,7′-Tetrahydroxy-2,4′-dioxo-2H,4′H-3,3′-bichromen-5′-yl)carbonyl]oxy}methyl)-1H-1,2,3-triazol-1-yl]acetyl}-L-glutamic acid]",7.9,,
"N=C(N)NCCC[C@H](NC(=O)Cn1cc(COC(=O)c2c(O)c(O)cc3occ(-c4cc5cc(O)c(O)cc5oc4=O)c(=O)c23)nn1)C(=O)O [Example 12, N^2-{[4-({[(6,6′,7,7′-Tetrahydroxy-2,4′-dioxo-2H,4′H-3,3′-bichromen-5′-yl)carbonyl]oxy}methyl)-1H-1,2,3-triazol-1-yl]acetyl}-L-arginine trifluoroacetate]",65.5,,

# Next, values leading:
remaining activity at 1 µM [%],remaining activity at 3 µM [%],remaining activity at 10 µM [%],Compound
,,< 70,"Cn1c(=O)c(-c2coc3cc(O)c(O)c(C(=O)O)c3c2=O)cc2cc(O)c(O)cc21 [Example 13, 3-(6,7-Dihydroxy-1-methyl-2-oxo-1,2-dihydroquinolin-3-yl)-6,7-dihydroxy-4-oxo-4H-chromene-5-carboxylic acid]"
78.8,6.1,,"Cn1c(=O)c(-c2coc3cc(O)c(O)c(C(=O)OCc4cn(CC(=O)N[C@@H](CCC(=O)O)C(=O)O)nn4)c3c2=O)cc2cc(O)c(O)cc21 [Example 14, N-({4-[({[3-(6,7-Dihydroxy-1-methyl-2-oxo-1,2-dihydroquinolin-3-yl)-6,7-dihydroxy-4-oxo-4H-chromen-5-yl]carbonyl}oxy)methyl]-1H-1,2,3-triazol-1-yl}acetyl)-L-glutamic acid]"
5.4,0,,"Cc1c(-c2coc3cc(O)c(O)c(C(=O)OCc4cn(CC(=O)N[C@@H](CCC(=O)O)C(=O)O)nn4)c3c2=O)c(=O)n(C)c2cc(O)c(O)cc12 [Example 15, N-({4-[({[3-(6,7-Dihydroxy-1,4-dimethyl-2-oxo-1,2-dihydroquinolin-3-yl)-6,7-dihydroxy-4-oxo-4H-chromen-5-yl]carbonyl}oxy)methyl]-1H-1,2,3-triazol-1-yl}acetyl)-L-glutamic acid]"
15.9,2.2,,"Cc1nc2cc(O)c(O)cn2c(=O)c1-c1coc2cc(O)c(O)c(C(=O)O)c2c1=O [Example 16, 3-(7,8-Dihydroxy-2-methyl-4-oxo-4H-pyrido[1,2-a]pyrimidin-3-yl)-6,7-dihydroxy-4-oxo-4H-chromene-5-carboxylic acid]"
90.1,3.3,,"Cc1nc2cc(O)c(O)cn2c(=O)c1-c1coc2cc(O)c(O)c(C(=O)OCc3cn(CC(=O)N[C@@H](CCC(=O)O)C(=O)O)nn3)c2c1=O [Example 17, N-({4-[({[3-(7,8-Dihydroxy-2-methyl-4-oxo-4H-pyrido[1,2-a]pyrimidin-3-yl)-6,7-dihydroxy-4-oxo-4H-chromen-5-yl]carbonyl}oxy)methyl]-1H-1,2,3-triazol-1-yl}acetyl)-L-glutamic acid]"
21.8,6.7,,"Cc1nc2cc(O)c(O)cn2c(=O)c1-c1coc2cc(O)c(O)c(C(=O)OCC(=O)N[C@@H](CCC(=O)O)C(=O)O)c2c1=O [Example 18, N-[({[3-(7,8-Dihydroxy-2-methyl-4-oxo-4H-pyrido[1,2-a]pyrimidin-3-yl)-6,7-dihydroxy-4-oxo-4H-chromen-5-yl]carbonyl}oxy)acetyl]-L-glutamic acid]"
< 70,< 10,,"Cn1cc(-c2coc3cc(O)c(O)c(C(=O)OCC(O)CO)c3c2=O)c(=O)c2cc(O)c(O)cc21 (stereo not shown) [Example 23, 2,3-Dihydroxypropyl 3-(6,7-dihydroxy-1-methyl-4-oxo-1,4-dihydroquinolin-3-yl)-6,7-dihydroxy-4-oxo-4H-chromene-5-carboxylate]"
< 70,< 10,,"Cn1cc(-c2coc3cc(O)c(O)c(C(=O)OC[C@H]4CC[C@H](N)CC4)c3c2=O)c(=O)c2cc(O)c(O)cc21 [Example 24, (trans-4-Aminocyclohexyl)methyl 3-(6,7-dihydroxy-1-methyl-4-oxo-1,4-dihydroquinolin-3-yl)-6,7-dihydroxy-4-oxo-4H-chromene-5-carboxylate hydrochloride]"
< 10,< 10,,"Cn1cc(-c2coc3cc(O)c(O)c(C(=O)OCC[C@H](N)C(=O)O)c3c2=O)c(=O)c2cc(O)c(O)cc21 [Example 27, O-{[3-(6,7-Dihydroxy-1-methyl-4-oxo-1,4-dihydroquinolin-3-yl)-6,7-dihydroxy-4-oxo-4H-chromen-5-yl]carbonyl}-L-homoserine hydrochloride]"
,< 40,,"Cn1cc(-c2coc3cc(O)c(O)c(C(=O)OCC(N)=O)c3c2=O)c(=O)c2cc(O)c(O)cc21 [Example 30, 2-Amino-2-oxoethyl 3-(6,7-dihydroxy-1-methyl-4-oxo-1,4-dihydroquinolin-3-yl)-6,7-dihydroxy-4-oxo-4H-chromene-5-carboxylate]"
